Test results from PubChem BioAssay (NCI).
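Protocol summary: plate cells (96-well), add compound at 5 concentrations, incubate 48 h, interpolate endpoints linearly. TGI denotes the concentration required for complete inhibition of growth.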

Legend:
Test in all cases: NCI-60 cell line screen, 48 h
OVCAR-4 ovarian = tested on: OVCAR-4 ovarian
CCRF-CEM leukemia = tested on: CCRF-CEM leukemia
SF-268 CNS = tested on: SF-268 CNS
SK-MEL-28 melanoma = tested on: SK-MEL-28 melanoma
MCF7 breast = tested on: MCF7 breast
COLO 205 colon = tested on: COLO 205 colon
A549 NSCLC = tested on: A549 NSCLC
UACC-257 melanoma = tested on: UACC-257 melanoma
SN12C renal = tested on: SN12C renal
NCI/ADR-RES ovarian = tested on: NCI/ADR-RES ovarian
UACC-62 melanoma = tested on: UACC-62 melanoma
SK-MEL-5 melanoma = tested on: SK-MEL-5 melanoma
HCC-2998 colon = tested on: HCC-2998 colon
SF-539 CNS = tested on: SF-539 CNS
IGROV1 ovarian = tested on: IGROV1 ovarian
LOX IMVI melanoma = tested on: LOX IMVI melanoma
HL-60(TB) leukemia = tested on: HL-60(TB) leukemia
M14 melanoma = tested on: M14 melanoma
MDA-N = tested on: MDA-N
MDA-MB-435 = tested on: MDA-MB-435
KM12 colon = tested on: KM12 colon
SNB-19 CNS = tested on: SNB-19 CNS
SK-OV-3 ovarian = tested on: SK-OV-3 ovarian
MOLT-4 leukemia = tested on: MOLT-4 leukemia
U251 CNS = tested on: U251 CNS
OVCAR-3 ovarian = tested on: OVCAR-3 ovarian
UO-31 renal = tested on: UO-31 renal
PC-3 prostate = tested on: PC-3 prostate
HCT-15 colon = tested on: HCT-15 colon
HCT-116 colon = tested on: HCT-116 colon
DU-145 prostate = tested on: DU-145 prostate
HOP-62 NSCLC = tested on: HOP-62 NSCLC
HT29 colon = tested on: HT29 colon
OVCAR-5 ovarian = tested on: OVCAR-5 ovarian
BT-549 breast = tested on: BT-549 breast
SR leukemia = tested on: SR leukemia
K-562 leukemia = tested on: K-562 leukemia
NCI-H522 lung = tested on: NCI-H522 lung
MDA-MB-231 breast = tested on: MDA-MB-231 breast
SW-620 colon = tested on: SW-620 colon
SF-295 CNS = tested on: SF-295 CNS
SNB-75 CNS = tested on: SNB-75 CNS
OVCAR-8 ovarian = tested on: OVCAR-8 ovarian
EKVX NSCLC = tested on: EKVX NSCLC
T-47D breast = tested on: T-47D breast
786-0 renal = tested on: 786-0 renal
NCI-H23 lung = tested on: NCI-H23 lung
NCI-H460 lung = tested on: NCI-H460 lung
TK-10 renal = tested on: TK-10 renal
RPMI-8226 leukemia = tested on: RPMI-8226 leukemia
ACHN renal = tested on: ACHN renal
CAKI-1 renal = tested on: CAKI-1 renal
A498 renal = tested on: A498 renal
NCI-H226 lung = tested on: NCI-H226 lung
SK-MEL-2 melanoma = tested on: SK-MEL-2 melanoma

`SCCCSCCSCCCSCCS` gave a TGI (OVCAR-4 ovarian) greater than 100 µM, a TGI (CCRF-CEM leukemia) greater than 100 µM and a TGI (SF-268 CNS) greater than 100 µM. For the same molecule, the TGI (SK-MEL-28 melanoma) was greater than 100 µM, the TGI (MCF7 breast) was greater than 100 µM and the TGI (COLO 205 colon) was greater than 100 µM. For the same molecule, the TGI (A549 NSCLC) was greater than 100 µM, the TGI (UACC-257 melanoma) was greater than 100 µM and the TGI (SN12C renal) was greater than 100 µM. The TGI (NCI/ADR-RES ovarian) was greater than 100 µM, the TGI (UACC-62 melanoma) was greater than 100 µM and the TGI (SK-MEL-5 melanoma) was greater than 100 µM. It also gave a TGI (HCC-2998 colon) greater than 100 µM, a TGI (SF-539 CNS) greater than 100 µM and a TGI (IGROV1 ovarian) greater than 100 µM. The TGI (LOX IMVI melanoma) was greater than 100 µM, the TGI (HL-60(TB) leukemia) was greater than 100 µM and the TGI (M14 melanoma) was greater than 100 µM. The TGI (MDA-N) was greater than 100 µM, the TGI (MDA-MB-435) was greater than 100 µM and the TGI (KM12 colon) was greater than 100 µM. The TGI (SNB-19 CNS) was greater than 100 µM, the TGI (SK-OV-3 ovarian) was greater than 100 µM and the TGI (MOLT-4 leukemia) was greater than 100 µM. The TGI (U251 CNS) was greater than 100 µM, the TGI (OVCAR-3 ovarian) was greater than 100 µM and the TGI (UO-31 renal) was greater than 100 µM. It also gave a TGI (PC-3 prostate) greater than 100 µM, a TGI (HCT-15 colon) greater than 100 µM and a TGI (HCT-116 colon) greater than 100 µM. For the same molecule, the TGI (DU-145 prostate) was greater than 100 µM, the TGI (HOP-62 NSCLC) was greater than 100 µM and the TGI (HT29 colon) was greater than 100 µM. The TGI (OVCAR-5 ovarian) was greater than 100 µM, the TGI (BT-549 breast) was greater than 100 µM and the TGI (SR leukemia) was greater than 100 µM. For the same molecule, the TGI (K-562 leukemia) was greater than 100 µM, the TGI (NCI-H522 lung) was greater than 100 µM and the TGI (MDA-MB-231 breast) was greater than 100 µM. It also gave a TGI (SW-620 colon) greater than 100 µM, a TGI (SF-295 CNS) greater than 100 µM and a TGI (SNB-75 CNS) greater than 100 µM. For the same molecule, the TGI (OVCAR-8 ovarian) was greater than 100 µM, the TGI (EKVX NSCLC) was greater than 100 µM and the TGI (T-47D breast) was greater than 100 µM. The TGI (786-0 renal) was greater than 100 µM, the TGI (NCI-H23 lung) was greater than 100 µM and the TGI (NCI-H460 lung) was greater than 100 µM.

With `CCNC(=S)NNC(=O)c1csc(NC(=S)NC2CCCCC2)n1` the TGI (OVCAR-4 ovarian) was 56.9 µM, the TGI (CCRF-CEM leukemia) was greater than 100 µM and the TGI (SF-268 CNS) was 31.4 µM. The TGI (MCF7 breast) was greater than 100 µM, the TGI (COLO 205 colon) was 21.9 µM and the TGI (A549 NSCLC) was 67.8 µM. For the same molecule, the TGI (UACC-257 melanoma) was 27.3 µM, the TGI (SN12C renal) was 17.3 µM and the TGI (NCI/ADR-RES ovarian) was 42.4 µM. It also gave a TGI (UACC-62 melanoma) of 27.7 µM, a TGI (SK-MEL-5 melanoma) of 15.5 µM and a TGI (HCC-2998 colon) of 23.8 µM. For the same molecule, the TGI (SF-539 CNS) was 22.8 µM, the TGI (LOX IMVI melanoma) was 21.4 µM and the TGI (M14 melanoma) was 27.1 µM. The TGI (MDA-N) was 15.8 µM, the TGI (MDA-MB-435) was 21.1 µM and the TGI (KM12 colon) was 28 µM. It also gave a TGI (SNB-19 CNS) greater than 100 µM, a TGI (SK-OV-3 ovarian) of 62.3 µM and a TGI (MOLT-4 leukemia) of 63.5 µM. For the same molecule, the TGI (U251 CNS) was 23.7 µM, the TGI (OVCAR-3 ovarian) was 16.2 µM and the TGI (UO-31 renal) was 23.1 µM. It also gave a TGI (PC-3 prostate) of 64.5 µM, a TGI (TK-10 renal) greater than 100 µM and a TGI (RPMI-8226 leukemia) of 71.6 µM. The TGI (HCT-15 colon) was 37.2 µM, the TGI (HCT-116 colon) was 18.8 µM and the TGI (DU-145 prostate) was 45.8 µM. The TGI (HOP-62 NSCLC) was 32.4 µM, the TGI (HT29 colon) was greater than 100 µM and the TGI (OVCAR-5 ovarian) was greater than 100 µM. It also gave a TGI (BT-549 breast) of 36.6 µM, a TGI (SR leukemia) greater than 100 µM and a TGI (MDA-MB-231 breast) of 24.9 µM. It also gave a TGI (ACHN renal) of 89.8 µM, a TGI (CAKI-1 renal) of 31.1 µM and a TGI (A498 renal) of 40 µM. For the same molecule, the TGI (SW-620 colon) was 19.2 µM, the TGI (NCI-H226 lung) was greater than 100 µM and the TGI (SF-295 CNS) was 40.7 µM. It also gave a TGI (OVCAR-8 ovarian) of 28.1 µM, a TGI (EKVX NSCLC) greater than 100 µM and a TGI (T-47D breast) of 53.7 µM. For the same molecule, the TGI (786-0 renal) was 25.6 µM, the TGI (NCI-H23 lung) was greater than 100 µM and the TGI (NCI-H460 lung) was 35.2 µM. For the same molecule, the TGI (SK-MEL-2 melanoma) was 29.3 µM.
